Results reported in US10988459B2 (priority 2015, dated 2021).

target: human RIP1 kinase domain (2-375) (Homo sapiens (Human), UniProt Q13546); experiment: biochemical; assay type: biochemical; conditions: Ki
Outline: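 Ki^app comes from Morrison tight-binding fits of fractional activity versus compound concentration. Activity was read as ADP production, via tracer displacement lowering fluorescence polarization (633 nm laser). Conditions: 2 h, 50 nM insect-cell-expressed enzyme, 50 uM ATP, 30 mM MgCl2, 1 mM DTT, 0.5% DMSO, pH 7.5 Hepes.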

Chain of human RIP1 kinase domain (2-375) (Q13546 2-375): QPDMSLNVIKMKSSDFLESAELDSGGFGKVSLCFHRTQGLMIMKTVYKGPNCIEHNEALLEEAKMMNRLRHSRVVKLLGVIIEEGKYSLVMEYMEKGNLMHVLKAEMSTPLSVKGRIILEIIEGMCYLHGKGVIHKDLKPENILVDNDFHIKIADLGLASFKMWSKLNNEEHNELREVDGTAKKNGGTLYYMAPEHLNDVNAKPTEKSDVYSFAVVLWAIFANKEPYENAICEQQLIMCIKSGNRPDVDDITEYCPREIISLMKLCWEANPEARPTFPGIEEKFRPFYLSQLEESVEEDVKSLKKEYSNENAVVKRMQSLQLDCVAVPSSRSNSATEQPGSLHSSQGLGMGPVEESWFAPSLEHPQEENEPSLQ

| SMILES | Ki |
| --- | --- |
| CN1C(=O)[C@@H](NC(=O)c2cn3c(C(F)(F)F)cccc3n2)COc2ccccc21 (single isomer, unassigned) [Example 736] | 0.07 µM |

same assay, conditions: Table 1; apparent Ki (Morrison tight-binding fit); 50 nM RIP1 kinase domain, 50 uM ATP, 2 hours incubation; read-out: RIP1 Ki

| SMILES | Ki |
| --- | --- |
| CC1CCc2cnc(C(=O)N[C@H]3COc4ccccc4N(C)C3=O)n2C1 (stereo partly drawn) [Example 11, 6-methyl-N—((S)-5-methyl-4-oxo-2,3,4,5-tetrahydrobenzo[b][1,4]oxazepin-3-yl)-5,6,7,8-tetrahydroimidazo[1,5-a]pyridine-3-carboxamide] | 0.329 µM |
| O=C(N[C@H]1COc2[nH]ncc2NC1=O)c1ccn(Cc2ccc(F)c(F)c2)n1 [Example 16, (S)-1-(3,4-difluorobenzyl)-N-(5-oxo-4,5,6,7-tetrahydro-1H-pyrazolo[3,4-b][1,4]oxazepin-6-yl)-1H-pyrazole-3-carboxamide] | > 10 µM |

same assay, conditions: Table 5; apparent Ki (Morrison tight-binding fit); 50 nM RIP1 kinase domain, 50 uM ATP, 2 hours incubation; read-out: Ki

| SMILES | Ki |
| --- | --- |
| CN1C(=O)[C@@H](NC(=O)c2ncc3c(n2)[C@](C)(C(F)(F)F)OC3)COc2ccccc21 [Example 745, (7R)-7-methyl-N-[(3S)-5-methyl-4-oxo-2,3-dihydro-1,5-benzoxazepin-3-yl]-7-(trifluoromethyl)-5H-furo[3,4-d]pyrimidine-2-carboxamide] | 0.012 µM |
| CC(C)Cn1cc(-c2cc3n(n2)CCC(NC(=O)c2ncn(Cc4ccccc4)n2)C(=O)N3C)cn1 (racemic) [Example 699, 1-benzyl-N-[2-(1-isobutylpyrazol-4-yl)-4-methyl-5-oxo-7,8-dihydro-6H-pyrazolo[1,5-a][1,3]diazepin-6-yl]-1,2,4-triazole-3-carboxamide] | 0.053 µM |
| CN1C(=O)[C@@H](NC(=O)c2ncn(Cc3ccccc3)n2)CCn2nc(CN3CCC(F)(F)C3)cc21 (single isomer, unassigned) [Example 727] | 0.059 µM |

same assay, conditions: human RIP1 kinase domain (2-375), 50 uM ATP, 2 hours incubation, Transcreener ADP assay; read-out: RIP1 Ki

| SMILES | Ki |
| --- | --- |
| CN1C(=O)[C@@H](NC(=O)c2cn(Cc3ccccc3)nn2)CCn2nc(C3CC3)cc21 (single isomer, unassigned) [Example 112] | 0.139 µM |
| Cc1cc2n(n1)CC[C@H](NC(=O)c1ncn(Cc3ccc(Cl)cc3)n1)C(=O)N2C [Example 170, (S)-1-(4-chlorobenzyl)-N-(2,4-dimethyl-5-oxo-5,6,7,8-tetrahydro-4H-pyrazolo[1,5-a][1,3]diazepin-6-yl)-1H-1,2,4-triazole-3-carboxamide] | 0.0132 µM |
| CN1C(=O)[C@@H](NC(=O)c2ncn(Cc3ccccc3)n2)CCCn2nccc21 [Example 155, (S)-1-benzyl-N-(4-methyl-5-oxo-4,5,6,7,8,9-hexahydropyrazolo[1,5-a][1,3]diazocin-6-yl)-1H-1,2,4-triazole-3-carboxamide] | 0.0382 µM |
| CN1C(=O)[C@@H](NC(=O)c2nnc(Cc3ccc(F)cc3)[nH]2)CCn2nccc21 [Example 98, (S)-5-(4-fluorobenzyl)-N-(4-methyl-5-oxo-5,6,7,8-tetrahydro-4H-pyrazolo[1,5-a][1,3]diazepin-6-yl)-4H-1,2,4-triazole-3-carboxamide] | 0.0704 µM |
| CN1C(=O)[C@@H](NC(=O)c2ncn(Cc3ccccc3)n2)CCn2nc(C(F)(F)F)cc21 [Example 91, (S)-1-benzyl-N-(4-methyl-5-oxo-2-(trifluoromethyl)-5,6,7,8-tetrahydro-4H-pyrazolo[1,5-a][1,3]diazepin-6-yl)-1H-1,2,4-triazole-3-carboxamide] | 0.0271 µM |

same assay, conditions: human RIP1 kinase domain (2-375), Transcreener ADP assay, 50 uM ATP, 2 hours incubation; read-out: RIP1 Ki

| SMILES | Ki |
| --- | --- |
| CN1C(=O)C(NC(=O)c2ncn(CC3CCCC3)n2)CCn2nc(C3CC3)cc21 (centres unmarked) [Example 261, 1-(cyclopentylmethyl)-N-(2-cyclopropyl-4-methyl-5-oxo-5,6,7,8-tetrahydro-4H-pyrazolo[1,5-a][1,3]diazepin-6-yl)-1H-1,2,4-triazole-3-carboxamide] | 0.104 µM |
| CN1C(=O)[C@@H](NC(=O)c2ncn(Cc3cccc(F)c3F)n2)CCn2nc([C@@H]3CC3(F)F)cc21 [Example 320, 1-(2,3-difluorobenzyl)-N—((S)-2-((S)-2,2-difluorocyclopropyl)-4-methyl-5-oxo-5,6,7,8-tetrahydro-4H-pyrazolo[1,5-a][1,3]diazepin-6-yl)-1H-1,2,4-triazole-3-carboxamide] | 0.0164 µM |
| CN1C(=O)C(NC(=O)c2ncn(CC3CCC3)n2)CCn2nc(C3CC3)cc21 (centres unmarked) [Example 256, 1-(cyclobutylmethyl)-N-(2-cyclopropyl-4-methyl-5-oxo-5,6,7,8-tetrahydro-4H-pyrazolo[1,5-a][1,3]diazepin-6-yl)-1H-1,2,4-triazole-3-carboxamide] | 0.21 µM |
| CN1C(=O)C(NC(=O)c2ncn(CC3CCOCC3)n2)CCn2nc(C3CC3)cc21 (centres unmarked) [Example 254, N-(2-cyclopropyl-4-methyl-5-oxo-5,6,7,8-tetrahydro-4H-pyrazolo[1,5-a][1,3]diazepin-6-yl)-1-((tetrahydro-2H-pyran-4-yl)methyl)-1H-1,2,4-triazole-3-carboxamide] | 2.2 µM |
| CN1C(=O)[C@@H](NC(=O)c2ncn(Cc3cccc(Cl)c3Cl)n2)CCn2nc(C3CC3)cc21 [Example 306, (S)—N-(2-cyclopropyl-4-methyl-5-oxo-5,6,7,8-tetrahydro-4H-pyrazolo[1,5-a][1,3]diazepin-6-yl)-1-(2,3-dichlorobenzyl)-1H-1,2,4-triazole-3-carboxamide] | 0.0146 µM |
| Cc1nn2c(c1C)N(C)C(=O)[C@@H](NC(=O)c1ncn(Cc3ccccc3)n1)CC2 [Example 274, (S)-1-benzyl-N-(2,3,4-trimethyl-5-oxo-5,6,7,8-tetrahydro-4H-pyrazolo[1,5-a][1,3]diazepin-6-yl)-1H-1,2,4-triazole-3-carboxamide] | 0.0395 µM |

same assay, conditions: tight-binding apparent inhibition constant; human RIP1 kinase domain (2-375) 50 nM, 50 uM ATP, 2 hours; read-out: Ki

| SMILES | Ki |
| --- | --- |
| CCC[C@H]1CCCc2nc(C(=O)N[C@H]3COc4cc(F)cc(F)c4NC3=O)nn21 (single isomer, unassigned) [Example 446] | 0.00706 µM |
| CN1C(=O)[C@@H](NC(=O)c2nc3n(n2)[C@H](c2ccccc2)CC3)CCn2nccc21 (single isomer, unassigned) [Example 614] | 0.79 µM |
| CC[C@H]1C[C@H](Cn2cnc(C(=O)N[C@H]3CCn4nc(C)cc4N(C)C3=O)n2)C1 [Example 501, N—((S)-2,4-dimethyl-5-oxo-5,6,7,8-tetrahydro-4H-pyrazolo[1,5-a][1,3]diazepin-6-yl)-1-(((1S,3S)-3-ethylcyclobutyl)methyl)-1H-1,2,4-triazole-3-carboxamide] | 0.067 µM |
| CN1C(=O)[C@@H](NC(=O)c2nc3cccc(-c4cnn(C)c4)n3n2)COc2ccccc21 [Example 398, (S)-5-(1-methyl-1H-pyrazol-4-yl)-N-(5-methyl-4-oxo-2,3,4,5-tetrahydrobenzo[b][1,4]oxazepin-3-yl)-[1,2,4]triazolo[1,5-a]pyridine-2-carboxamide] | 0.036 µM |
| Cc1cc(F)c2c(c1)OC[C@H](NC(=O)c1nc3n(n1)[C@@H](C(F)(F)F)CCC3)C(=O)N2 (single isomer, unassigned) [Example 427] | 0.21 µM |
| Cc1cc2n(n1)CC[C@H](NC(=O)c1ncn(CC3CCOC3)n1)C(=O)N2C (stereo partly drawn) [Example 479, N-(6S)-2,4-dimethyl-5-oxo-7,8-dihydro-6H-pyrazolo[1,5-a][1,3]diazepin-6-yl-1-(tetrahydrofuran-3-ylmethyl)-1,2,4-triazole-3-carboxamide] | 2.8 µM |
| CN1C(=O)[C@@H](NC(=O)c2ncn(Cc3ccc(F)c(F)c3)n2)CCn2nccc21 (racemic) [Example 341, 1-[(3,4-difluorophenyl)methyl]-N-[rac-(6S)-4-methyl-5-oxo-7,8-dihydro-6H-pyrazolo[1,5-a][1,3]diazepin-6-yl]-1,2,4-triazole-3-carboxamide] | 0.017 µM |
| CN1C(=O)[C@@H](NC(=O)c2ncn(Cc3ccccc3F)n2)CCn2nc(C(F)(F)F)cc21 [Example 526] | 0.02 µM |
| CCc1cccc2nc(C(=O)N[C@H]3CCn4nccc4N(C)C3=O)nn12 [Example 374, (S)-5-ethyl-N-(4-methyl-5-oxo-5,6,7,8-tetrahydro-4H-pyrazolo[1,5-a][1,3]diazepin-6-yl)-[1,2,4]triazolo[1,5-a]pyridine-2-carboxamide] | 0.269 µM |
| CN1C(=O)[C@@H](NC(=O)c2ncn(C[C@H]3C[C@H](C(F)(F)F)C3)n2)CCn2nccc21 [Example 494] | 0.11 µM |
| CN1C(=O)[C@@H](NC(=O)c2nc3n(n2)CC[C@@H]3c2ccccc2)COc2ccccc21 [Example 573, (7R)-7-phenyl-N-[(3S)-5-methyl-4-oxo-2,3-dihydro-1,5-benzoxazepin-3-yl]-6,7-dihydro-5H-pyrrolo[1,2-b][1,2,4]triazole-2-carboxamide] | 0.017 µM |
| Cc1cc2n(n1)CC[C@H](NC(=O)c1nc3n(n1)CCOC31CCCC1)C(=O)N2C [Example 567, N-[(6S)-2,4-dimethyl-5-oxo-7,8-dihydro-6H-pyrazolo[1,5-a][1,3]diazepin-6-yl]spiro[5,6-dihydro-[1,2,4]triazolo[5,1-c][1,4]oxazine-8,1′-cyclopentane]-2-carboxamide] | 0.41 µM |
| CN1C(=O)[C@H](NC(=O)c2ncn(Cc3ccccc3)n2)CCn2nc([C@@H]3CC3(F)F)cc21 (stereo in doubt) [Example 675, 1-benzyl-N-[rac-(6R)-4-methyl-5-oxo-2-[rac-(1S)-2,2-difluorocyclopropyl]-7,8-dihydro-6H-pyrazolo[1,5-a] [1,3]diazepin-6-yl]-1,2,4-triazole-3-carcoxamide] | 0.0164 µM |
| CC(C)n1ncc2cnc(C(=O)N[C@H]3CCc4cc(F)cc(F)c4NC3=O)nc21 [Example 607, 1-isopropyl-N-[(3S)-7,9-difluoro-2-oxo-1,3,4,5-tetrahydro-1-benzazepin-3-yl]pyrazolo[3,4-d]pyrimidine-6-carboxamide] | 0.028 µM |
| O=C(N[C@H]1CCc2cc(F)cc(F)c2NC1=O)c1ncc2c(n1)C1(CCC1)OC2 [Example 618] | 0.024 µM |
